One may read the IC50 as the concentration needed to halve the response being measured. A high value points to a need for much substance.

What all share (assay type): functional, cell-based
The test system of one experiment is HepG2. Nature of the experiment: Cytotoxicity against human HepG2 cells by MTT method. (In general: Tetrazolium assays rely on reduction of a dye to a coloured formazan, in cell work by metabolically active cells.)
A further experiment relates to MCF7. Nature of the experiment: Cytotoxicity against human MCF7 cells by MTT method.
For another experiment, the system named is MDA-MB-435. Nature of the experiment: Cytotoxicity against human MDA-MB-435 cells by MTT method.

Converted amounts (≈) assume the structure as drawn.

On to `CC(C)[C@H]1C=C[C@]2(C)Oc3c(C(=O)/C=C/c4ccccc4)c(O)cc(O)c3C2C1` (stereo partly drawn) [Sumadain C], for which the concentration for half-maximal inhibition (IC50) with HepG2 came to 13 µg/mL (≈ 33.3 µM); in the experiment on MCF7, 15.9 µg/mL (≈ 40.8 µM); with MDA-MB-435, 12.8 µg/mL (≈ 32.7 µM).

(Values after ChEMBL document CHEMBL1151867, “Two novel monoterpene-chalcone conjugates isolated from the seeds of Alpinia katsumadai” (Bioorg Med Chem Lett, 2009).)
